According to patent publication US5561139A, “Substituted alicyclic-aliphatic amine-containing macrocyclic immunomodulators” (Abbott Laboratories, priority 1995, dated 1996):

System: human mixed lymphocyte reaction (MLR)
Test: human mixed lymphocyte reaction (MLR) assay, immunosuppressant activity
Assay type: cell-based
Settings: Table 1
Description: Example 68; In Vitro Assay of Biological Activity
The immunosuppressant activity of the compounds of the present invention was determined using the human mixed lymphocyte reaction (MLR) assay described by Kino, T. et al. in Transplantation Proceedings XIX(5);36-39, Suppl. 6 (1987), incorporated herein by reference.

SMILES | IC50
CC[C@@H]1/C=C(\C)C[C@H](C)C[C@H](OC)[C@H]2O[C@@](O)(C(=O)C(=O)N3CCCC[C@H]3C(=O)O[C@H](/C(C)=C/[C@@H]3CC[C@H](NCCN4CCCC4)[C@H](OC)C3)[C@H](C)[C@@H](O)CC1=O)[C@H](C)C[C@@H]2OC [Example 19] | < 1 µM
CC[C@@H]1/C=C(\C)C[C@H](C)C[C@H](OC)[C@H]2O[C@@](O)(C(=O)C(=O)N3CCCC[C@H]3C(=O)O[C@H](/C(C)=C/[C@@H]3CC[C@H](NCCCN4CCOCC4)[C@H](OC)C3)[C@H](C)[C@@H](O)CC1=O)[C@H](C)C[C@@H]2OC [Example 17] | < 1 µM
CC[C@@H]1/C=C(\C)C[C@H](C)C[C@H](OC)[C@H]2O[C@@](O)(C(=O)C(=O)N3CCCC[C@H]3C(=O)O[C@H](/C(C)=C/[C@@H]3CC[C@H](NCCCN4CCCCC4)[C@H](OC)C3)[C@H](C)[C@@H](O)CC1=O)[C@H](C)C[C@@H]2OC [Example 9] | < 1 µM
CC[C@@H]1/C=C(\C)C[C@H](C)C[C@H](OC)[C@H]2O[C@@](O)(C(=O)C(=O)N3CCCC[C@H]3C(=O)O[C@H](/C(C)=C/[C@@H]3CC[C@H](NCCN4CCOCC4)[C@H](OC)C3)[C@H](C)[C@@H](O)CC1=O)[C@H](C)C[C@@H]2OC [Example 5] | < 1 µM
CC[C@@H]1/C=C(\C)C[C@H](C)C[C@H](OC)[C@H]2O[C@@](O)(C(=O)C(=O)N3CCCC[C@H]3C(=O)O[C@H](/C(C)=C/[C@@H]3CC[C@H](NCCCN4CCN(C)CC4)[C@H](OC)C3)[C@H](C)[C@@H](O)CC1=O)[C@H](C)C[C@@H]2OC [Example 12] | < 1 µM

The remaining lines, values ahead:

IC50 | SMILES
< 1 µM | CC[C@@H]1/C=C(\C)C[C@H](C)C[C@H](OC)[C@H]2O[C@@](O)(C(=O)C(=O)N3CCCC[C@H]3C(=O)O[C@H](/C(C)=C/[C@@H]3CC[C@H](NC4CCN(Cc5ccccc5)CC4)[C@H](OC)C3)[C@H](C)[C@@H](O)CC1=O)[C@H](C)C[C@@H]2OC [Example 8]
< 1 µM | CC[C@@H]1/C=C(\C)C[C@H](C)C[C@H](OC)[C@H]2O[C@@](O)(C(=O)C(=O)N3CCCC[C@H]3C(=O)O[C@H](/C(C)=C/[C@@H]3CC[C@H](N(CCO)CCN4CCOCC4)[C@H](OC)C3)[C@H](C)[C@@H](O)CC1=O)[C@H](C)C[C@@H]2OC [Example 30]
< 1 µM | CC[C@@H]1/C=C(\C)C[C@H](C)C[C@H](OC)[C@H]2O[C@@](O)(C(=O)C(=O)N3CCCC[C@H]3C(=O)O[C@H](/C(C)=C/[C@@H]3CC[C@@H](NCCCN4CCCCC4)[C@H](OC)C3)[C@H](C)[C@@H](O)CC1=O)[C@H](C)C[C@@H]2OC [Example 47]
< 1 µM | CC[C@@H]1/C=C(\C)C[C@H](C)C[C@H](OC)[C@H]2O[C@@](O)(C(=O)C(=O)N3CCCC[C@H]3C(=O)O[C@H](/C(C)=C/[C@@H]3CC[C@H](NCCN4CCNCC4)[C@H](OC)C3)[C@H](C)[C@@H](O)CC1=O)[C@H](C)C[C@@H]2OC [Example 18]
